In patent US20030130200A1, “Small peptides and methods for treatment of asthma and inflammation” (Hisatek, LLC, priority 1997, published 2003):
“Also recorded” adds a separate entry of the source. Where no end group is shown, it is not given here. The star is where a group is joined. For = O=C*

Test system: OVA-induced asthmatic mice
Experiment: OVA-induced bronchial asthma mouse model, Standard/Resolution protocols, drug before each i.n. challenge
Format: in vivo, mouse (female BALB/c)
From the text: The OVA-Induced Bronchial Asthma Mouse Model for Inhibition of Mast Cell Degranulation
Reagents: Crystalline OVA was obtained from Pierce Chem. Co. (Rockford, Ill.) aluminum potassium sulfate (alum) from Sigma Chem. Co. (St. Louis, Mo.), pyrogen-free distilled water from Baxter, Healthcare Corporation (Deerfield, Ill.), 0.9% sodium chloride (normal saline) from Lymphomed (Deerfield, Ill.) and Trappsol™ HPB-L100 (aqueous hydroxypropyl beta cyclodextrin; 45 wt/vol % aqueous solution) from Cyclodextrin Technologies Development, Inc. (Gainesville, Fla.). The OVA (500 μg/ml in normal saline) was mixed with equal volumes of 10% (wt/vol) alum in distilled water. The mixture (pH 6.5 using 10 N NaOH) after incubation for 60 minutes at room temperature underwent centrifugation at 750 g for 5 minutes; the pellet was resuspended to the original volume in distilled water and used within one hour.
The selective 5-lipoxtgenase inhibitor, Zileuton (N-[1-benzo[b]thien-2-ylethyl]-N-hydroxyurea; J. Pharmacol Exp Ther. 1991; 256: 929-937), was kindly provided by Drs. Bell and George W. Carter (Abbott Laboratories, Abbott Part, Ill.). Zileuton was dissolved in Trappsol.™. Histatek, Inc. (Seattle, Wash.) provided the mast cell degranulation inhibitor, f-Met-Leu-Phe-Phe (“HK-X”).
Female BALB/c […] (6-8 wk of age at purchase; D and K, Seattle Wash.) were housed under conventional conditions for the studies.
Allergen Immunization/Challenge Protocols: Mice received an i.p. injection of 0.2 ml (100 μg) of OVA with alum on the different protocols of Standard (FIG. 5A) and Resolution (FIG. 5B) (J. Exp Med. 1996; 184: 1483-1494). According to the different protocols, mice were anesthetized with 0.2 ml i.p. of ketamine (0.44 mg/ml)/xylazine (6.3 mg/ml) in normal saline before receiving an intranasal (i.n.) does of 100 μg OVA in 0.05 ml normal saline and an i.n. dose of 50 μg OVA in 0.05 ml normal saline separately on different days. Two control groups were used. Accordingly, the first group received normal saline with alum i.p. and normal saline without alum i.n.; the second group received OVA with alum i.p., OVA without alum i.n., and normal saline, alone.
The trachea and left lung (the right lung is used for bronchoalveolar lavage (“BAL”)) were obtained and fixed in 10% neutral formaldehyde solution at room temperature for 6˜15h. After being embedded in paraffin, the tissues were cut into 5-um sections and processed with the different staining or immunolabling further. Discombe's eosinophil staining was used for counting the cell numbers with the counterstain of methylene blue. The eosinophil number per unit airway area (2,200 μm^2) was determined by morphometry (J. Pathol. 1992; 166: 395-404; Am Rev Respir Dis. 1993; 147:448-456). Fibrosis was identified with the Masson's trichrome staining. Airway mucus was identified by the following staining method: methylene blue, hematoxylin and eosin, mucicarmine, alcian blue, and alcian blue/periodic acid-Schiff (PAS) reaction (Troyer, H., “Carbohydrates” in Principles and Techniques of Histochemistry, Little, Brown and Company, Boston, Mass., 1980: 89-121; Sheehan, D. C., et al., “Carbohydrates” in Theory and Practice of Histotechnology, Battle Press, Columbus, Ohio, 1980: 159-179). Mucin was stained with mucicarmine solution; metanil yellow counterstain was employed.
Acidic mucin and sulfated mucosubstances were stained with alcian blue, pH 2.5; nuclear fast red counterstain was used. Neutral and acidic mucosubstances were identified by alcian blue. pH 2.5, and PAS reaction. The degree of mucus plugging of the airways (0.5-0.8 mm in diameter) was also assessed by morphometry. The percent occlusion of airway diameter by mucus was classified on a semiquantitative scale from 0 to 4+ as described in Figure Legends. The histologic and morphometric analyses were performed by individuals blinded to the protocol design. […]

f-Met-Leu-Phe-Phe (For-MLFF) [Example 9]
Reduction of airway eosinophils over time course (1-, 2- and 3-month groups, versus OVA): reduced eosinophils comparably at one month, but much more beneficially at two and three months
% of plug of airway (28 days): 19%
Mucus plug score in airways (28 days, semiquantitative scale 0 to 4+): 1.4
Mucus accumulation / mucus release in the airway (histology, morphometry) (HK-X given before i.n. OVA, FIG. 6, listed as HK-X): inhibits mucus accumulation; also recorded: markedly reduced
Infiltration of the interstitial tissue by eosinophils (histology) (compared to OVA-challenge alone, FIG. 6C): also reduced
Formation of mucus plugs / mucus production in small airways (doses of 5 μg/kg and 10 μg/kg, FIG. 7): Both doses significantly reduce the mucus production in small airways
